Assay results published in the supplement of paper PMC8671470.

How the values were obtained:
Details in all cases: 72 h
ML-2 [1] = tested on: ML-2
In short: (§1)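 Fifteen myeloid leukaemia cell lines were seeded in RPMI 1640 at a density titrated to the linear growth range. Each line went into 384-well plates with compounds acoustically pre-printed at five tenfold doses from 1 to 10,000 nM, in duplicate, and was incubated for 72 h at 37 °C with 5% CO2. Luminescent ATP viability was normalised to vehicle and to a positive control at 10 µM. The IC50 came from four-parameter log-logistic dose–response fits.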

Mono-Mac-6 [2] = tested on: Mono-Mac-6
In short: as §1

THP-1 [3] = tested on: THP-1
In short: as §1

K-562 [4] = tested on: K-562
In short: as §1

KCL-22 [5] = tested on: KCL-22
In short: as §1

LAMA-84 [6] = tested on: LAMA-84
In short: as §1

SHI-1 [7] = tested on: SHI-1
In short: as §1

KU-812 [8] = tested on: KU-812
In short: as §1

MV4-11 [9] = tested on: MV4-11
In short: as §1

HL-60 [10] = tested on: HL-60
In short: as §1

MOLM-13 [11] = tested on: MOLM-13
In short: as §1

KG-1 [12] = tested on: KG-1
In short: as §1

NOMO-1 [13] = tested on: NOMO-1
In short: as §1

HEL [14] = tested on: HEL
In short: as §1

BV-173 [15] = tested on: BV-173
In short: as §1

ML-2 [16] = test: cell viability (% survival relative to DMSO control, bortezomib = 0%); higher = less cytotoxic
In short: (§2)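 Fifteen myeloid leukaemia cell lines were exposed to compounds at 1, 10, 100, 1000 or 10000 nM in 384-well plates for 72 h at 37 °C and 5% CO2. Viability was read by CellTiter-Glo luminescence and normalised, with vehicle as 100% and a 10 µM positive control as 0%. Values are percent survival averaged over duplicates.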

Mono-Mac-6 [17] = test: as above
In short: as §2

THP-1 [18] = test: as above
In short: as §2

K-562 [19] = test: as above
In short: as §2

KCL-22 [20] = test: as above
In short: as §2

LAMA-84 [21] = test: as above
In short: as §2

SHI-1 [22] = test: as above
In short: as §2

KU-812 [23] = test: as above
In short: as §2

MV4-11 [24] = test: as above
In short: as §2

HL-60 [25] = test: as above
In short: as §2

MOLM-13 [26] = test: as above
In short: as §2

KG-1 [27] = test: as above
In short: as §2

NOMO-1 [28] = test: as above
In short: as §2

HEL [29] = test: as above
In short: as §2

BV-173 [30] = test: as above
In short: as §2

CCOC(=O)c1sc(NC(=O)c2ccco2)c(SC#N)c1C [CBR-5884]
Details	IC50 (cell viability) [µM]
BV-173 [15]	> 10
HEL [14]	> 10
HL-60 [10]	> 10
K-562 [4]	> 10
KCL-22 [5]	> 10
KG-1 [12]	> 10
KU-812 [8]	> 10
LAMA-84 [6]	> 10
ML-2 [1]	> 10
MOLM-13 [11]	> 10
MV4-11 [9]	7.25
Mono-Mac-6 [2]	> 10
NOMO-1 [13]	> 10
SHI-1 [7]	> 10
THP-1 [3]	> 10

cell viability [%]
Details	1 nM	10 nM	100 nM	1000 nM	10000 nM
BV-173 [30]	100	111	87.5	105	80
HEL [29]	102	102	98.2	104	86.5
HL-60 [25]	103	102	89.5	92.7	59.4
K-562 [19]	89.9	105	92.7	88.9	83.7
KCL-22 [20]	110	85.5	107	105	94.6
KG-1 [27]	90.5	83.3	103	94.3	74.9
KU-812 [23]	93.5	101	109	94.8	88.3
LAMA-84 [21]	89.2	102	103	102	99.1
ML-2 [16]	94.5	97.2	104	99.3	60.5
MOLM-13 [26]	97.2	82.9	112	97.3	81.4
MV4-11 [24]	79.9	96.3	116	88.3	51.1
Mono-Mac-6 [17]	94.9	111	102	103	91.1
NOMO-1 [28]	99.8	104	97.4	100	94.5
SHI-1 [22]	90.4	87.1	102	103	81.3
THP-1 [18]	102	97.1	98.1	94.4	100
